According to article PMC10020548, “Synthesis and structure–activity relationship studies of benzimidazole-thioquinoline derivatives as α-glucosidase inhibitors” (Scientific Reports, 2023):
Where two headings read alike, the source gives them in different places.

Assays:
[1] = biological target: T1, α-Glucosidase enzyme (EC3.2.1.20, Saccharomyces cerevisiae) (Saccharomyces cerevisiae, UniProt P53341); assay: biochemical; conditions: α-glucosidase from S. cerevisiae, substrate p-nitrophenyl glucopyranoside, pH 6.8, 37 °C; mean ± SD
T1 construct: purchased Sigma-Aldrich
Description: α-Glucosidase enzyme (EC3.2.1.20, Saccharomyces cerevisiae, 20 U/mg) and substrate (p-nitrophenyl glucopyranoside) were purchased from Sigma-Aldrich. 1 mg of α-glucosidase was dissolved in potassium phosphate buffer (50 mM, pH = 6.8) to obtain the initial activity of 1 U ml^–1. Then, 20 µl of this enzyme solution was incubated with 135 µl of potassium phosphate buffer and 20 µl of test compound at various concentrations in DMSO. Therefore, the final concentration of the enzyme was about 0.1 U ml^–1. After 10 min incubation at 37 °C, 25 µl of the substrate at a final concentration of 4 mM was added to the mixture and allowed to incubate at 37 °C for 20 min.
The percentage of inhibition for each entry was calculated by using the following formula: %Inhibition=[(Abscontrol-Abssample)/Abscontrol]×100 IC50 values were obtained from the nonlinear regression curve using the Logit method.

[2] = biological target: α-glucosidase (Saccharomyces cerevisiae, UniProt P53341); assay: Enzyme kinetic studies (Lineweaver–Burk plot, secondary plot); assay type: biochemical
Description: A Lineweaver–Burk plot was generated to identify the type of inhibition and the Michaelis–Menten constant (Km) value was determined from the plot between the reciprocal of the substrate concentration (1/[S]) and reciprocal of enzyme rate (1/V) over various inhibitor concentrations. The experimental inhibitor constant (Ki) value was constructed by secondary plots of the inhibitor concentration [I] versus Km[43],[44].

[3] = biological target: α-glucosidase; conditions: cited from earlier work
[4] = tested on: α-glucosidase; design: method as in PMID 34717239; conditions: cited from earlier work
[5] = tested on: LO2 cells; design: method as in PMID 34717239; conditions: cited from earlier work

α-glucosidase (Saccharomyces cerevisiae, UniProt P53341), sequence (P53341 whole entry): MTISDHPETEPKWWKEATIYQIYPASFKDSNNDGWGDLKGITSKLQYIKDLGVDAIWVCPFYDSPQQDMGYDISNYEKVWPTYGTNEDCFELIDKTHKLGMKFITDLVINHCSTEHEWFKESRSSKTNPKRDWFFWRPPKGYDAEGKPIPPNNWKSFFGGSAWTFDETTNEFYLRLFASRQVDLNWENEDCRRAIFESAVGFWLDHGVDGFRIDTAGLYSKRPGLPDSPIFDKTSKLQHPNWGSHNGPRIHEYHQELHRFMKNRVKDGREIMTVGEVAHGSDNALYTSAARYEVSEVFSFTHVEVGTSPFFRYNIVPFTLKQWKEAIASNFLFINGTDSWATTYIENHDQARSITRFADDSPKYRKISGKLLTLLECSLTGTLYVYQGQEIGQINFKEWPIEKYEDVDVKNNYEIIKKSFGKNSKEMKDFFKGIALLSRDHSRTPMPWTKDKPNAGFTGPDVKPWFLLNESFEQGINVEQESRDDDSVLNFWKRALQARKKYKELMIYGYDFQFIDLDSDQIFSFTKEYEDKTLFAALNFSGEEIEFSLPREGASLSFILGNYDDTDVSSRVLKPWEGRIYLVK
T1 sequence (P53341 whole entry): as above

IC50 [1] [µM] | SMILES | also measured
153.7 ± 0.9 | c1ccc(CSc2nc3ccccc3cc2-c2nc3ccccc3[nH]2)cc1 [Compound 6a, 3-(1H-benzo[d]imidazol-2-yl)-2-(benzylthio) quinoline] | –
188 ± 2.4 | Fc1ccccc1CSc1nc2ccccc2cc1-c1nc2ccccc2[nH]1 [Compound 6b, 3-(1H-benzo[d]imidazol-2-yl)-2-((2-fluorobenzyl)thio)quinoline] | –
76.7 ± 0.7 | Fc1cccc(CSc2nc3ccccc3cc2-c2nc3ccccc3[nH]2)c1 [Compound 6c, 3-(1H-benzo[d]imidazol-2-yl)-2-((3-fluorobenzyl)thio)quinoline] | –
80.9 ± 1.1 | Fc1ccc(CSc2nc3ccccc3cc2-c2nc3ccccc3[nH]2)cc1 [Compound 6d, 3-(1H-benzo[d]imidazol-2-yl)-2-((4-fluorobenzyl)thio)quinoline] | –
663.7 ± 1.2 | Clc1ccccc1CSc1nc2ccccc2cc1-c1nc2ccccc2[nH]1 [Compound 6e, 3-(1H-benzo[d]imidazol-2-yl)-2-((2-chlorobenzyl)thio)quinoline] | –
48.2 ± 0.4 | Clc1cccc(CSc2nc3ccccc3cc2-c2nc3ccccc3[nH]2)c1 [Compound 6f, 3-(1H-benzo[d]imidazol-2-yl)-2-((3-chlorobenzyl)thio)quinoline] | –
96.6 ± 0.1 | Clc1ccc(CSc2nc3ccccc3cc2-c2nc3ccccc3[nH]2)cc1 [Compound 6g, 3-(1H-benzo[d]imidazol-2-yl)-2-((4-chlorobenzyl)thio)quinoline] | –
133.5 ± 1.3 | Brc1ccccc1CSc1nc2ccccc2cc1-c1nc2ccccc2[nH]1 [Compound 6h, 3-(1H-benzo[d]imidazol-2-yl)-2-((2-bromobenzyl)thio)quinoline] | –
65.5 ± 2 | Brc1cccc(CSc2nc3ccccc3cc2-c2nc3ccccc3[nH]2)c1 [Compound 6i, 3-(1H-benzo[d]imidazol-2-yl)-2-((3-bromobenzyl)thio)quinoline] | –
99.4 | Clc1ccc(CSc2nc3ccccc3cc2-c2nc3ccccc3[nH]2)cc1Cl [Compound 6k, 3-(1H-benzo[d]imidazol-2-yl)-2-((3,4-dichlorobenzyl)thio)quinoline] | –
195.7 ± 0.6 | Cc1ccccc1CSc1nc2ccccc2cc1-c1nc2ccccc2[nH]1 [Compound 6l, 3-(1H-benzo[d]imidazol-2-yl)-2-((2-methylbenzyl)thio)quinoline] | –
158 ± 2.4 | Cc1cccc(CSc2nc3ccccc3cc2-c2nc3ccccc3[nH]2)c1 [Compound 6m, 3-(1H-benzo[d]imidazol-2-yl)-2-((3-methylbenzyl)thio)quinoline] | –
116.6 ± 0.5 | Cc1ccc(CSc2nc3ccccc3cc2-c2nc3ccccc3[nH]2)cc1 [Compound 6n, 3-(1H-benzo[d]imidazol-2-yl)-2-((4-methylbenzyl)thio)quinoline] | –
126.9 ± 0.5 | Cc1cccc(CSc2nc3ccccc3cc2-c2nc3ccccc3[nH]2)c1C [Compound 6o, 3-(1H-benzo[d]imidazol-2-yl)-2-((2,3-dimethylbenzyl)thio)quinoline] | –
89.2 ± 1.3 | O=[N+]([O-])c1ccc(CSc2nc3ccccc3cc2-c2nc3ccccc3[nH]2)cc1 [Compound 6p, 3-(1H-benzo[d]imidazol-2-yl)-2-((4-nitrobenzyl)thio)quinoline] | –
67.3 ± 0.8 | COc1ccc(CSc2nc3ccccc3cc2-c2nc3ccccc3[nH]2)cc1 [Compound 6q, 3-(1H-benzo[d]imidazol-2-yl)-2-((4-methoxybenzyl)thio)quinoline] | –
300.7 ± 2 | CCSc1nc2ccccc2cc1-c1nc2ccccc2[nH]1 [Compound 6r, 3-(1H-benzo[d]imidazol-2-yl)-2-(ethylthio)quinoline] | –

Further lines, the compound ahead of its results:

SMILES | IC50 [1] [µM] | also measured
Brc1ccc(CSc2nc3ccccc3cc2-c2nc3ccccc3[nH]2)cc1 [Compound 6j, 3-(1H-benzo[d]imidazol-2-yl)-2-((4-bromobenzyl)thio)quinoline] | 28 ± 0.6 | Ki ([2]; secondary plot of Km versus inhibitor concentration, read-out: inhibition constant, Ki): 28.1 µM; inhibition pattern (Lineweaver–Burk plot) ([2]; substrate p-nitrophenyl α-D-glucopyranoside 1–16 mM, inhibitor 0, 7, 14, 28 µM): competitive inhibition
O=C(O)c1ccc2ccccc2n1 [Compound A, Quinoline-2-carboxylic acid] | – | IC50 [3]: 9.1 ± 2.3 µg/mL
O=C(N/N=C/c1ccc(O)c(O)c1)c1ccc(-c2nnc(-c3ccc4ncccc4c3)o2)cc1 [Compound B] | – | IC50 ([3]; oxadiazole-quinoline study, read-out: IC50): 2.6 ± 0.01 µM
O=C(N/N=C/c1ccc(O)c(O)c1)c1ccc2ncccc2c1 [Compound C] | – | IC50 ([3]; quinoline derivatives study, read-out: IC50): 6.2 ± 0.3 µM
O=c1c(C(c2c[nH]c3ccccc23)c2c[nH]c3ccccc23)cc2ccccc2n1Cc1ccccc1 [Compound D] | – | IC50 ([3]; quinolone-bis(indolyl)methane hybrids study, read-out: IC50): 21.8 ± 1.8 µM
Brc1ccc(CNc2cccc(-c3nc4ccccc4[nH]3)c2)cn1 [E] | – | IC50 ([3]; in-house library hit, read-out: IC50): 37.9 ± 1.86 µM
CC(C)(C)c1ccc(C(=O)Oc2cccc(-c3nc4ccccc4[nH]3)c2)cc1 [F] | – | IC50 ([3]; 2-phenyl-1H-benzo[d]imidazole derivatives, read-out: IC50): 0.71 ± 0.02 µM; type of inhibition (kinetic study) [4]: non-competitive inhibition; cytotoxicity against LO2 cells [5]: no cytotoxicity
Cc1cc2nc(-c3ccc(C(=O)N/N=C/c4cc(O)c(O)c(O)c4)cc3)[nH]c2cc1C [G] | – | IC50 ([3]; benzimidazole derivatives (Zawawi and coworkers), read-out: IC50): 8.4 ± 0.76 µM
Cc1cccc2nc(-c3ccccc3Cl)[nH]c12 [H] | – | IC50 ([3]; benzimidazole of previous studies, read-out: IC50): 5.3 ± 0.1 µM
